22 compounds from US9505724B2, “4-amino substituted condensed pyrimidine compounds as PDE4 inhibitors” (GRÜNENTHAL GMBH, priority 2013, dated 2016) can be followed below.

One series has as its target T1, human PDE4B1 (Homo sapiens, UniProt Q07343).
T1 construct: host or cells: Sf9 cells
As to the kind of experiment: cAMP HTRF assay to determine the activity of hPDE4B1. The class given is biochemical. Conditions: read-out: PDE4B IC50. Here is the method: 1. Determination of the PDE4B IC50 Values with a cAMP HRTF® Assay to Determine the Activity of hPDE4B1
The inhibiting effect of the compounds on the enzyme activity of human PDE4B1 is measured by the quantification of 5′-AMP, which is formed from 3′,5′-adenosine monophosphate (cAMP). Human recombinant enzyme, expressed in Sf9 cells, and the HTRF (homogeneous time-resolved fluorescence) detection method are used in the assay.
The test compound or water (control) is mixed with the human recombinant PDE4B1 enzyme (4.8 U) in a buffer consisting of 44.4 mM tris-HCl, 5.28 mM MgCl2, 2.64 mM DTT and 0.044% Tween 20 (pH 7.8). After adding the cAMP enzyme substrate (final concentration 40 nM) the mixture is incubated for 30 minutes at room temperature. Then a fluorescence acceptor (Dye2 marked with cAMP), a fluorescence donor (anti-cAMP antibody marked with a europium cryptate) and the non-specific phosphodiesterase inhibitor IBMX (3-isobutyl-1-methylxanthine; final concentration 1 mM) are added. After 60 minutes the fluorescence transfer, which correlates with the amount of remaining cAMP, is measured with a microplate reader (Rubystar, BMG) at λex=337 nm, λem=620 nm and λεm=665 nm. The enzyme activity is calculated from the quotient formed from the measured signal at 665 nm and that at 620 nm. The result is expressed as the percentage inhibition of enzyme activity of the control (without PDE4 inhibitor) (literature: N. Saldou et al., Comparison of recombinant human PDE4 isoforms: interaction with substrate and inhibitors, Cell. Signal. Vol. 10, No. 6, 427-440, 1998). The enzyme is omitted for measurement of the basal control. The averaged results are set out in Table 5.
Background: Time-resolved FRET reads energy transfer from a long-lived donor to a nearby acceptor.

For a further series, the target named is human recombinant PDE4D2 (Homo sapiens, UniProt Q08499). Briefly: cAMP HTRF assay to determine the activity of hPDE4D2. The class given is biochemical. Here is the method:
2. Determination of the PDE4D-IC50 Values with a cAMP HRTF® Assay to Determine the Activity of hPDE4D2
The further procedure and evaluation are performed in exactly the same way as in the above description of the cAMP HTRF® assay for PDE4B.

The mark [1] stands for this setting: human recombinant PDE4B1, cAMP 40 nM, averaged results (Table 5).
The mark [2] stands for this setting: comparative experiments, re-synthesised prior-art compounds (Table 6).

Each structure is given as a SMILES string. Structures can show the parent of a compound that is named as a salt. Where two headings read alike, the source gives them in different places. Where only a bound is given, the exact number is not on record here.

Usually IC50 stands for the concentration needed to halve the response being measured. One may read the melting point as the temperature, or range, at which the solid turns liquid.

T1 sequence (Q07343 whole entry): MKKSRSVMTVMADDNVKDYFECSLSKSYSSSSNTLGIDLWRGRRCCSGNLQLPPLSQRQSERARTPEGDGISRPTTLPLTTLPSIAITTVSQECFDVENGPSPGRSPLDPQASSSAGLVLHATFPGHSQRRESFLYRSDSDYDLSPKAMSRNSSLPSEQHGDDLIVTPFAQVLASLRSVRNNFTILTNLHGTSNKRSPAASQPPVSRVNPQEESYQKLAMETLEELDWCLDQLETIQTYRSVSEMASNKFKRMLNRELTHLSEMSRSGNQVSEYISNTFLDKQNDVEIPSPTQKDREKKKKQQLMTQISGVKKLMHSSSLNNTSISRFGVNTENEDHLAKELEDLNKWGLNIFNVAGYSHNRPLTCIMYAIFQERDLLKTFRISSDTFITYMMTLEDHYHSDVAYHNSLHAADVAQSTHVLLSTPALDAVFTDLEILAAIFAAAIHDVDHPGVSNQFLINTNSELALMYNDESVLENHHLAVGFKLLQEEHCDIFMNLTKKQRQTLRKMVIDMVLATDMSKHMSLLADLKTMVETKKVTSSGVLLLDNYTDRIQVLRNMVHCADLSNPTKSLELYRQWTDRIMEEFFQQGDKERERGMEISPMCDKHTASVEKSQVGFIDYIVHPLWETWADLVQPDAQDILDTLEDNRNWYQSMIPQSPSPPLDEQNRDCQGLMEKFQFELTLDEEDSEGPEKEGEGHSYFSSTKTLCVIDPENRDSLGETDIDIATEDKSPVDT
Sequence of human recombinant PDE4D2 (Q08499 303-809): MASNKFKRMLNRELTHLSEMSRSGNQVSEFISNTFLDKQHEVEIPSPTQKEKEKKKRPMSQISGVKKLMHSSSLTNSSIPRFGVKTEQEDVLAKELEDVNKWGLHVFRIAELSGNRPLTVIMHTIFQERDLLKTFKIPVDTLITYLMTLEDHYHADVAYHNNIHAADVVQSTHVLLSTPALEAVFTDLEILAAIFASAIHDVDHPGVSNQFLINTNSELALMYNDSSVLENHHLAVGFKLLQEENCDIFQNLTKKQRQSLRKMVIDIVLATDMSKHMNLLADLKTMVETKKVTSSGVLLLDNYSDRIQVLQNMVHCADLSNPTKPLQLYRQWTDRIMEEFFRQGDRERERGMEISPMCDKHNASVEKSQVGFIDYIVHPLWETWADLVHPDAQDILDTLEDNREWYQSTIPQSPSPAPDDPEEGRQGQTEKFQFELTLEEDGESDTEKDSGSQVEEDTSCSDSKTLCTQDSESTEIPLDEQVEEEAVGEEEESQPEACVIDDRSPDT

With `O=C(O)Cc1ccc(Nc2nc(-c3ccc(Br)cc3)nc3c2CCC3)cc1` [Compound 1, 2-(4-(2-(4-Bromophenyl)-6,7-dihydro-5H-cyclopenta[d]pyrimidin-4-ylamino)phenyl)acetic acid], the IC50 on human PDE4B1 (setting [1]) came out at 660 nM.
Same read-out and setting: in the case of `O=C(O)Cc1ccc(Nc2nc(-c3ccc(F)c(F)c3)nc3c2CCC3)cc1` [Compound 2, 2-(4-(2-(3,4-Difluorophenyl)-6,7-dihydro-5H-cyclopenta[d]pyrimidin-4-ylamino)phenyl)acetic acid] it was 190 nM; in that of `O=C(O)Cc1ccc(Nc2nc(-c3ccc4occc4c3)nc3c2CCC3)cc1` [Compound 2-1, 2-(4-(2-(Benzofuran-5-yl)-6,7-dihydro-5H-cyclopenta[d]pyrimidin-4-ylamino)phenyl)acetic acid], 740 nM.
On to `COc1ccc(-c2nc3c(c(Nc4ccc(CC(=O)O)cc4)n2)CCC3)cc1F` [Compound 3, 2-(4-(2-(3-Fluoro-4-methoxyphenyl)-6,7-dihydro-5H-cyclopenta[d]pyrimidin-4-ylamino)phenyl)acetic acid], for which the IC50 at human PDE4B1 (setting [1]) is 120 nM.
In the case of `COc1ccc(-c2nc3c(c(Nc4ccc(CC(=O)O)cc4)n2)CCC3)cc1Cl` [Compound 4, 2-(4-(2-(3-Chloro-4-methoxyphenyl)-6,7-dihydro-5H-cyclopenta[d]pyrimidin-4-ylamino)phenyl)acetic acid], the IC50 on human PDE4B1 (setting [1]) stood at 70 nM.
With `O=C(O)Cc1ccc(Nc2nc(-c3ccc(OC(F)F)cc3)nc3c2CCC3)cc1` [Compound 5, 2-(4-(2-(4-(Difluoromethoxy)phenyl)-6,7-dihydro-5H-cyclopenta[d]pyrimidin-4-ylamino)phenyl)acetic acid], the IC50 on human PDE4B1 (setting [1]) was found to be 490 nM.
On the same count and under the same terms, in the case of `O=C(O)Cc1ccc(Nc2nc(-c3ccc(OC(F)(F)F)cc3)nc3c2CCC3)cc1` [Compound 6, 2-(4-(2-(4-(Trifluoromethoxy)phenyl)-6,7-dihydro-5H-cyclopenta[a]pyrimidin-4-ylamino)phenyl)acetic acid] it was 3100 nM; in that of `CCOc1ccc(-c2nc3c(c(Nc4ccc(CC(=O)O)cc4)n2)CCC3)cc1` [Compound 7, 2-(4-(2-(4-Ethoxyphenyl)-6,7-dihydro-5H-cyclopenta[d]pyrimidin-4-ylamino)phenyl)acetic acid], 600 nM; in that of `COc1ccc(-c2nc3c(c(Nc4ccc(CC(=O)O)cc4)n2)CCC3)cc1` [Compound 8, 2-(4-(2-(4-Methoxyphenyl)-6,7-dihydro-5H-cyclopenta[d]pyrimidin-4-ylamino)phenyl)acetic acid as 2,2,2-trifluoroacetic acid addition salt], 380 nM.
The same measure, in the same setting: in the case of `O=C(O)Cc1ccc(Nc2nc(-c3ccc(Cl)cc3)nc3c2CCC3)cc1` [Compound 9, 2-(4-(2-(4-Chlorophenol)-6,7-dihydro-5H-cyclopenta[d]pyrimidin-4-ylamino)phenyl)acetic acid as 2,2,2-trifluoroacetic acid addition salt] it was 880 nM; in that of `O=C(O)Cc1ccc(Nc2nc(-c3cccc(Cl)c3)nc3c2CCC3)cc1` [Compound 10, 2-(4-(2-(3-Chlorophenyl)-6,7-dihydro-5H-cyclopenta[d]pyrimidin-4-ylamino)phenyl)acetic acid], 300 nM.
On to `O=C(O)c1ccc(Nc2nc(-c3cccc(Cl)c3)nc3c2CCC3)cc1` [Compound 11, 4-(2-(3-Chlorophenyl)-6,7-dihydro-5H-cyclopenta[d]pyrimidin-4-ylamino)benzoic acid], for which, at human PDE4B1 (setting [1]), the IC50 came to 640 nM.
For the compound `O=C(O)Cc1ccc(Nc2nc(-c3cccc(Cl)c3)nc3c2CCCC3)cc1` [Compound 12, 2-(4-(2-(3-Chlorophenyl)-5,6,7,8-tetrahydroquinazolin-4-ylamino)phenyl)acetic acid], the IC50 on human PDE4B1 (setting [1]) is 550 nM.
In the case of `COc1ccc(-c2nc3c(c(Nc4ccc(C(=O)O)cc4)n2)CCC3)cc1F` [Compound 13, 4-(2-(3-Fluoro-4-Methoxyphenyl)-6,7-Dihydro-5H-Cyclopenta[d]pyrimidin-4-ylamino)benzoic acid], the melting point is above 260 °C. Besides, at human PDE4B1 (setting [1]), the IC50 worked out at 210 nM.
In the same order, the values of `COc1ccc(-c2nc3c(c(Nc4ccc(C(=O)O)cc4)n2)CCC3)cc1Cl` [Compound 14, 4-(2-(3-Chloro-4-methoxyphenyl)-6,7-dihydro-5H-cyclopenta[d]pyrimidin-4-ylamino)benzoic acid] are above 260 °C and 140 nM.
`O=C(O)c1ccc(Nc2nc(-c3ccc(F)c(F)c3)nc3c2CCC3)cc1` [Compound 15, 4-(2-(3,4-Difluorophenyl)-6,7-dihydro-5H-cyclopenta[d]pyrimidin-4-ylamino)benzoic acid] had a melting point above 260 °C. The IC50 at human PDE4B1 (setting [1]) was found to be 390 nM.
As for `O=C(O)Cc1ccc(Nc2nc(-c3ccccc3)nc3c2CCC3)cc1` [Compound 16, 2-(4-(2-Phenyl-6,7-dihydro-5H-cyclopenta[d]pyrimidin-4-ylamino)phenyl)acetic acid], the IC50 on human PDE4B1 (setting [1]) came out at 690 nM.
The same measure, in the same setting: in the case of `O=C(O)Cc1ccc(Nc2nc(-c3cccc(F)c3)nc3c2CCC3)cc1` [Compound 17, 2-(4-(2-(3-Fluorophenyl)-6,7-dihydro-5H-cyclopenta[d]pyrimidin-4-ylamino)phenyl)acetic acid] it was 210 nM.
Same read-out and setting: in the case of `O=C(O)Cc1ccc(Nc2nc(-c3cccc(Br)c3)nc3c2CCC3)cc1` [Compound 18, 2-(4-(2-(3-Bromophenyl)-6,7-dihydro-5H-cyclopenta[d]pyrimidin-4-ylamino)phenyl)acetic acid] it was 220 nM; in that of `O=C(O)c1ccc(Nc2nc(-c3cccc(Cl)c3)nc3c2CCCC3)cc1` [Compound 19, 4-(2-(3-Chlorophenyl)-5,6,7,8-tetrahydroquinazoline-4-ylamino)benzoic acid], 2140 nM.
Take `C=CCc1c(C)nc(-c2ccc(OC)cc2)nc1Nc1ccc(CC(=O)O)cc1` [Compound S1, reference compound]: the IC50 was above 10000 nM on human recombinant PDE4D2 (comparative experiments, re-synthesised prior-art compounds (Table 6), read-out: PDE4D IC50) and 3600 nM on human PDE4B1 (setting [2]).
Consider `C=CCc1c(C)nc(-c2ccccc2)nc1Nc1ccc(C(=O)O)cc1` [Compound S2, reference compound], for which the IC50 on human recombinant PDE4D2 was determined as 1300 nM; on human PDE4B1 (setting [2]), 1100 nM.
